# Publication PMC8507746, “The FHP01 DDX3X Helicase Inhibitor Exerts Potent Anti-Tumor Activity In Vivo in Breast Cancer Pre-Clinical Models” (Cancers, 2021)
# Where “and” joins values, the source holds several entries; their conditions need not be identical. Equal entries are not always repeated. Where two headings read alike, the source gives them in different places.
# Experiments:
# [1] = test system: DDX3X and β-catenin in MDA MB 231 tumors; experiment: Western blot of DDX3X and β-catenin in tumors from treated mice; assay type: in vivo, athymic nude mice; conditions: 45 mg/kg i.p. three times per week for 4 weeks, individual tumors
# Method: (§1) Cells (1 × 10^5) were seeded in 6-well plates. After 24 h, cells were treated for indicated times with DMSO (vehicle) or FHP01 or XAV939 (Merck). After treatments, cells were washed with cold PBS and total protein extracts obtained by adding 80 µL of “RIPA Lysis buffer” (50 mM Tris-HCl pH 8.0, 150 mM NaCl, 0.5% Sodium deoxycholate, 0.1% SDS, 1% NP-40, 2 mM Orthovanadate, 2mM Sodium fluoride, 1mM Dithiothreitol and 1× protease inhibitors). After mechanicals detachment with cell scrapers, total lysates were collected in tubes, vortexed, and incubated for 15 min on ice. Tumors from mice were collected and disrupted by bead homogenization in Lysing Matrix D tubes using a FastPrep-24 5G homogenizer (MP Biomedicals, Solon, OH, USA) filled with “RIPA Lysis buffer” w:v. Next, samples were centrifuged for 10 min at 16,000× g, and supernatants were collected, representing total cell lysates.
# (§2) Densitometric analysis of western blots was performed with NIH Image J (National Institutes of Health).
# [2] = Cell viability / cytotoxicity assay (cell counting); assay type: cell-based; conditions: human, MCF10A control cells
# Method: (§3) Cells were seeded at 3–5 × 10^4 cells/well density (depending on cell lines) in 12-well plates, in triplicate, and maintained at 37 °C in 5% CO2. After 24 h, cells were treated with different concentrations of indicated drugs in a range from 0 to 100 μM (0, 0.1, 1, 10, 50, 100 μM). After 72 h incubation, cells were washed in PBS and harvested. Cell number of each sample was determined with Z2 Coulter Counter (Beckman Coulter, Brea, CA, USA), in triplicate. Data about cell viability were plotted in GraphPad Prism 8.0 software (GraphPad Software, San Diego, CA, USA) to draw dose-response curve and to calculate IC50.
# T47D cells = experiment: as above; assay type: cell-based; conditions: Homo sapiens, 72 h
# Method: as §3
# MCF7 cells = experiment: as above; assay type: cell-based; conditions: Homo sapiens, MCF7, 72 h
# Method: as §3
# SKBR3 cells = experiment: as above; assay type: cell-based; conditions: Homo sapiens, SK-BR-3; SKBR3, 72 h
# Method: as §3
# [3] = Drug distribution to brain and liver in mice; assay type: in vivo, Swiss Albino mice; conditions: for Kp at 4 h / Kp at 8 h: male, Swiss Albino, mouse, ip, 10 mg/kg, ng/g normalized against ng/mL
# Method: These studies were performed at the GVKBioscience Pvt. LTD Contract Research and Development Organization (CRDO). Animals were housed in cages with clean bedding. Adult Swiss Albino male mice (weight = 20–35 g) were maintained and monitored for good health in accordance with GVKBioscience Pvt. LTD Test Facility SOPs and at the discretion of the laboratory animal veterinarian. Certified rodent diet was provided, and water was available ad libitum. A periodic analysis of the water was performed, and the results have been archived at the Test Facility. Environmental controls for the animal room were set to maintain a temperature of 22 to 25 °C, humidity of 40–70% relative humidity, and a 12-h light/12-h dark cycle. Animals have been dosed i.v. with 1 mg/kg of FHP01 i.p. with 10 mg/kg of compound or p.o. through gastric gavage needle with 50 mg/kg of compound. Next, mice were anesthetized using gaseous anesthesia and blood samples were collected at each time point, from 3 mice of respective group. After collection of blood samples at each time point, the blood samples were stored on ice, prior to centrifugation. Blood samples were centrifuged at 1540 rcf (5000 rpm), 4 °C for 10 min to separate plasma. Plasma was transferred to pre-labeled micro-centrifuge tubes and promptly frozen at −80 °C until analysis. Samples have been identified by test item, group, animal number, and collection time point. A fit-for-purpose bioanalytical method was developed for analyzing the plasma samples. One set of nine standards have been run before the sample batch and used for plotting the calibration curve. Quality control (QC) samples have been prepared at a minimum of three concentrations, i.e., LQC (not more than 5 times to that of lowest standard concentration), HQC (not less than 75% of the highest standard concentration), and MQC (between the low and high concentration). Minimum of 6 QC samples (three concentrations in duplicate). One Set of QC (LQC, MQC, and HQC) samples have been analyzed before and after the sample batch.
# For the analyses of drug distribution to brain and liver, whole body perfusion was performed using chilled saline in the defined group of animals followed by decapitation for tissue collection. The chest of the mice was exposed, the abdominal aorta was clamped, and both jugular veins were cut. Intra-cardial perfusion was performed through an insertion in the left ventricle. Mice brains and livers have been collected and immediately washed, dried, weighed and freeze at −80 °C until homogenization. The protocol has been reviewed and approved by the Institutional Animal Ethics Committee (IAEC).
# β-catenin = experiment: Western blot of β-catenin protein levels in MDA MB 231 cells; assay type: cell-based, human; conditions: MDA MB 231, 6 μM, 48 to 72 h
# Method: as §1, §2
# [4] = brain/plasma, i.p. administration, read-out: BRAIN/PLASMA
# [5] = liver/plasma, i.p. administration, read-out: LIVER/PLASMA
smiles,measurement,setting,value
CCCCc1cn(-c2ccc(NC(=O)Nc3ccccc3C(F)(F)F)cc2)nn1 [FHP01],DDX3X : ERK2 in tumors,"[1]; Ctrl 0.64, 1.00, 0.60",0.01 (2×) and 0.13
same,β-Catenin : ERK2 in tumors,"[1]; Ctrl 0.64, 1.00, 0.89",0.64 and 0.79 and 0.70
same,IC50 at 72 h,[2],28.7 µM
same,IC50,T47D cells,10.6 µM
same,IC50,MCF7 cells,12.4 µM
same,IC50,SKBR3 cells,13.5 µM
same,tissue concentration,[3]; 24 h after administration,below the level of quantitation
same,BRAIN/PLASMA,"[3]; i.p. administration, 12h",BLQ
same,LIVER/PLASMA,"[3]; i.p. administration, 12h",BLQ
same,Kp at 4 h,[3]; [4],0.5 ± 0.24
same,Kp at 8 h,[3]; [4],3.14 ± 0.74
same,Kp at 4 h,[3]; [5],3.75 ± 1.06
same,Kp at 8 h,[3]; [5],6.32 ± 2.23
same,β-catenin protein levels,β-catenin,time-dependent reduction
